Earlier results on 1 compound are cited in patent US8946148B2 (Ambrx, Inc., priority 2007, dated 2015).

This series has as its system patients with NIDDM and impaired glucose tolerance.

For `Cc1c(C)c2c(c(C)c1O)CCC(C)(COc1ccc(CC3SC(=O)NC3=O)cc1)O2` (stereo not shown) [Troglitazone], the “effect on insulin resistance” value is reported as “reverse insulin resistance”.
